# Source: patent US20230083012A1, “DIHYDROPYRIMIDINE DERIVATIVES AND USES THEREOF IN THE TREATMENT OF HBV INFECTION OR OF HBV-INDUCED DISEASES” (priority 2019, published 2023)
# Key:
# HBV = experiment: Anti-HBV activity in HepG2.2.15 cells (HBV DNA in culture medium by qPCR); assay type: cell-based; conditions: Hepatitis B virus, HepG2.2.15, 144 h, HepG2.2.15 cells, 6 days treatment, HBV DNA in culture medium quantified by real-time PCR; read-out: EC50
# Summary of the method: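 Secreted HBV DNA was measured by real-time PCR after 6-day compound exposure of HepG2.2.15 cells (2% FBS, 37 °C, re-dosed after 3 days), giving EC50 from 8-point 1:3 series starting at 10 or 1 uM. Cytotoxicity (CC50) run separately at lower cell density, top 100 uM.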
# [1] = Cytotoxicity determination in HepG2.2.15 cells (CCK-8 cell viability); assay type: cell-based; conditions: human, 6 days treatment, CCK-8 assay, highest concentration 100 uM
# Summary of the method: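 Viability measured by CCK-8 absorbance (450 nm, 630 nm reference, 2.5 h at 37° C) after six days of treatment, medium and compound renewed on day 3. Top concentration 100 uM, eight threefold dilutions in triplicate; cells plated at 5,000/well in 2% FBS medium; CC50 derived.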
Compound,EC50 (HBV),CC50 at 6 days [1]
"CCOC(=O)C1=C(CN2CC(F)(F)[C@@H]3[C@H]2CN(CC(F)F)N3CCC(C)(C)C(=O)O)NC(c2nccs2)=N[C@H]1c1cccc(F)c1C (single isomer, unassigned) [Compound 91]",71 nM,8800 nM
"CCOC(=O)C1=C(CN2CC(F)(F)[C@@H]3[C@H]2CN(CC(F)(F)F)N3CCC(C)(C)C(=O)O)NC(c2nccs2)=N[C@H]1c1cccc(F)c1C (single isomer, unassigned) [Compound 92]",61 nM,5000 nM
"CCOC(=O)C1=C(CN2CC(F)(F)[C@@H]3[C@H]2CN(C)N3CCC(C)(C)C(=O)O)NC(c2nccs2)=N[C@@H]1c1ccc(F)c(F)c1C (single isomer, unassigned) [Compound 93, 4-(4-((6-(3,4-difluoro-2-methylphenyl)-5-(ethoxycarbonyl)-2-(thiazol-2-yl)-3,6-dihydropyrimidin-4-yl)methyl)-6,6-difluoro-2-methylhexahydropyrrolo[3,2-c]pyrazol-1(2H)-yl)-2, ethylbutanoic acid]",12 nM,5400 nM
"COC(=O)C1=C(CN2CC(F)(F)[C@@H]3[C@H]2CN(C)N3CCC(C)(C)C(=O)O)NC(c2nccs2)=N[C@H]1c1ccc(F)cc1Cl (single isomer, unassigned) [Compound 94]",14 nM,25000 nM
"COC(=O)C1=C(CN2CC(F)(F)[C@@H]3[C@H]2CN(C)N3CCC(C)(C)C(=O)O)NC(c2nccs2)=N[C@H]1c1ccc(F)c(F)c1Cl (single isomer, unassigned) [Compound 95, 4-((cis)-4-((6-(2-Chloro-3,4-difluorophenyl)-5-(methoxycarbonyl)-2-(thiazol-2-yl)-3,6-dihydropyrimidin-4-yl)methyl)-6,6-difluoro-2-methylhexahydropyrrolo[3,2-c]pyrazol-1(2H)-yl)-2,2-dimethylbutanoic acid]",24 nM,8200 nM
"CCOC(=O)C1=C(CN2CC(F)(F)[C@@H]3[C@H]2CN(C)N3CCC(C)(C)C(=O)O)NC(c2nccs2)=N[C@@H]1c1ccc(F)nc1C (single isomer, unassigned) [Compound 96]",50 nM,> 100000 nM
"CCOC(=O)C1=C(CN2CC(F)(F)[C@@H]3[C@H]2CN(C)N3CC(C)(C)C(=O)O)NC(c2nccs2)=N[C@@H]1c1ccc(F)nc1C (single isomer, unassigned) [Compound 97]",77 nM,> 100000 nM
"CCOC(=O)C1=C(CN2CC(F)(F)[C@@H]3[C@H]2CN(C)N3CC2CC(C)(C(=O)O)C2)NC(c2nccs2)=N[C@H]1c1cccc(F)c1C (single isomer, unassigned) [Compound 98]",14 nM,> 6200 nM
"CCOC(=O)C1=C(CN2CC(F)(F)[C@@H]3[C@H]2CN(C)N3CCOC(C)(C)C(=O)O)NC(c2nccs2)=N[C@H]1c1cccc(F)c1C (single isomer, unassigned) [Compound 99]",155 nM,25000 nM
"[2H]C([2H])([2H])N1C[C@@H]2[C@H](N1CCC(C)(C)C(=O)O)C(F)(F)CN2CC1=C(C(=O)OCC)[C@H](c2cccc(F)c2C)N=C(c2nccs2)N1 (single isomer, unassigned) [Compound 100]",11 nM,12000 nM
"COC(=O)C1=C(CN2CC(F)(F)[C@@H]3[C@H]2CN(C)N3CCC(C)(C)C(=O)O)NC(c2nccs2)=N[C@H]1c1ccc(F)c(F)c1C (single isomer, unassigned) [Compound 101, 4-((cis)-4-((6-(3,4-Difluoro-2-methylphenyl)-5-(methoxycarbonyl)-2-(thiazol-2-yl)-3,6-dihydropyrimidin-4-yl)methyl)-6,6-difluoro-2-methylhexahydropyrrolo[3,2-c]pyrazol-1(2H)-yl)-2,2-dimethylbutanoic acid]",25 nM,> 3100 nM
"CCOC(=O)C1=C(CN2CC(F)(F)[C@@H]3[C@H]2CN(C)N3CCC(C)(C)C(=O)O)NC(c2nccs2)=N[C@H]1c1cccc(F)c1Cl (single isomer, unassigned) [Compound 102, 4-((cis)-4-((6-(2-chloro-3-fluorophenyl)-5-(ethoxycarbonyl)-2-(thiazol-2-yl)-3,6-dihydropyrimidin-4-yl)methyl)-6,6-difluoro-2-methylhexahydropyrrolo[3,2-c]pyrazol-1(2H)-yl)-2,2-dimethylbutanoic acid]",13.5 nM,53800 nM
"CCOC(=O)C1=C(CN2CC(F)(F)[C@@H]3NCC[C@@H]32)NC(c2nccs2)=N[C@H]1c1cccc(F)c1C (single isomer, unassigned) [Compound 103]",54.3 nM,19800 nM
"CCOC(=O)C1=C(CN2CC(F)(F)[C@H]3[C@@H]2CCN3[C@H]2CC[C@@H](C(=O)O)CC2)NC(c2nccs2)=N[C@H]1c1cccc(F)c1C (single isomer, unassigned) [Compound 104A]",10.4 nM,16100 nM
"CCOC(=O)C1=C(CN2CC(F)(F)[C@H]3[C@@H]2CCN3C2CCC(C(=O)O)CC2)NC(c2nccs2)=N[C@H]1c1cccc(F)c1C (single isomer, unassigned) [Compound 104B]",8 nM,> 6200 nM
"CCOC(=O)C1=C(CN2CC(F)(F)[C@H]3[C@@H]2CCN3[C@H](C)CC(C)(C)C(=O)O)NC(c2nccs2)=N[C@H]1c1cccc(F)c1C (single isomer, unassigned) [Compound 105A]",10.5 nM,15200 nM

Compound,EC50 (HBV),CC50 at 6 days [1]
"CCOC(=O)C1=C(CN2CC(F)(F)[C@H]3[C@@H]2CCN3[C@@H](C)CC(C)(C)C(=O)O)NC(c2nccs2)=N[C@H]1c1cccc(F)c1C (single isomer, unassigned) [Compound 105B]",108 nM,94300 nM
"CCOC(=O)C1=C(CN2CC(F)(F)[C@H]3[C@@H]2CCN3CC(C)(C)C(=O)O)NC(c2nccs2)=N[C@@H]1c1cccc(O)c1C (single isomer, unassigned) [Compound 106, (cis)-3-(4-((5-(ethoxycarbonyl)-6-(3-hydroxy-2-methylphenyl)-2-(thiazol-2-yl)-3,6-dihydropyrimidin-4-yl)methyl)-6,6-difluorohexahydropyrrolo[3,2-b]pyrrol-1(2H)-yl)-2,2-dimethylpropanoic acid]",20 nM,39500 nM
"CCOC(=O)C1=C(CN2CC(F)(F)[C@H]3[C@@H]2CCN3CCC(C)(C)c2nnn[nH]2)NC(c2nccs2)=N[C@H]1c1cccc(F)c1C (single isomer, unassigned) [Compound 108]",0.4 nM,13100 nM
"CCOC(=O)C1=C(CN2CC(F)(F)[C@H]3[C@@H]2CCN3CC(C)(C)C(=O)NS(C)(=O)=O)NC(c2nccs2)=N[C@H]1c1cccc(F)c1C (single isomer, unassigned) [Compound 109]",< 1 nM,7300 nM
"CCOC(=O)C1=C(CN2CC(F)(F)[C@H]3[C@@H]2CCN3CCOC(C)(C)C(=O)O)NC(c2nccs2)=N[C@H]1c1cccc(F)c1C (single isomer, unassigned) [Compound 111]",7.8 nM,33400 nM
"CCOC(=O)C1=C(CN2CC(F)(F)C3[C@@H]2CCN3[C@H]2C[C@](C)(C(=O)O)C2)NC(c2nccs2)=N[C@H]1c1cccc(F)c1C (single isomer, unassigned) [Compound 112A]",4.6 nM,28700 nM
"CCOC(=O)C1=C(CN2CC(F)(F)C3[C@@H]2CCN3[C@H]2C[C@@](C)(C(=O)O)C2)NC(c2nccs2)=N[C@H]1c1cccc(F)c1C (single isomer, unassigned) [Compound 112B]",4.7 nM,23600 nM
"CCOC(=O)C1=C(CN2CC(F)(F)C3[C@@H]2CCN3C2CC(C)(C(=O)O)C2)NC(c2nccs2)=N[C@H]1c1cccc(F)c1C (single isomer, unassigned) [Compound 112]",5.3 nM,28600 nM
"[H][C@]1(N2CC[C@H]3[C@@H]2C(F)(F)CN3CC2=C(C(=O)OCC)[C@H](c3cccc(F)c3C)N=C(c3nccs3)N2)C[C@@]2(C[C@@H](C(=O)O)C2)C1 (single isomer, unassigned) [Compound 113A]",5 nM,> 3000 nM
"[H][C@]1(C(=O)O)C[C@@]2(C1)C[C@@]([H])(N1CC[C@H]3[C@@H]1C(F)(F)CN3CC1=C(C(=O)OCC)[C@H](c3cccc(F)c3C)N=C(c3nccs3)N1)C2 (single isomer, unassigned) [Compound 113B]",< 1 nM,> 3100 nM
"CCOC(=O)C1=C(CN2CC(F)(F)[C@H]3[C@@H]2CCN3C2CC3(CC(C(=O)O)C3)C2)NC(c2nccs2)=N[C@H]1c1cccc(F)c1C (single isomer, unassigned) [Compound 113]",2.2 nM,12500 nM
"CCOC(=O)C1=C(CN2CC(F)(F)[C@H]3[C@@H]2CCN3C2CCC(C(=O)O)C2)NC(c2nccs2)=N[C@H]1c1cccc(F)c1C (single isomer, unassigned) [Compound 115]",3.1 nM,24000 nM
"CCOC(=O)C1=C(CN2CC(F)(F)[C@H]3[C@@H]2CCN3C[C@H]2C[C@@](C)(C(=O)O)C2)NC(c2nccs2)=N[C@H]1c1cccc(F)c1C (single isomer, unassigned) [Compound 116A]",0.8 nM,12100 nM
"CCOC(=O)C1=C(CN2CC(F)(F)[C@H]3[C@@H]2CCN3C[C@H]2C[C@](C)(C(=O)O)C2)NC(c2nccs2)=N[C@H]1c1cccc(F)c1C (single isomer, unassigned) [Compound 116B]",2.5 nM,10600 nM
"CCOC(=O)C1=C(CN2CC(F)(F)[C@H]3[C@@H]2CCN3CCC2(C(=O)O)CC2)NC(c2nccs2)=N[C@H]1c1cccc(F)c1C (single isomer, unassigned) [Compound 117]",< 0.5 nM,24700 nM
